Assay results: PMC8175350, “Drug repurposing screens identify chemical entities for the development of COVID-19 interventions” (Nature Communications, 2021)
Structures can show the parent of a compound that is named as a salt. Where two headings read alike, the source gives them in different places.

What was measured:
HeLa-ACE2 cells [1] = assay: cells; type: cell-based, human; conditions: read-out: HeLa-ACE2 TOA cell count EC50 GeoMean
HEK293T = HEK293T 72 h CellTiter-Glo cytotoxicity; conditions: 72 h
SARS-CoV-2 [2] = type: cell-based; conditions: combination with remdesivir
HeLa-ACE2 cells [3] = assay: Uninfected HeLa-ACE2 24 h live/dead cytotoxicity counter screen; type: cell-based, human; conditions: for CC50: read-out: HeLa-ACE2 uninfected cytotoxicity CC50 GeoMean
SARS-CoV-2 [4] = assay: microbe, parasite or virus in culture; type: cell-based
Calu-3 cells [5] = assay: Uninfected Calu-3 48 h Cell-Titer Glo cytotoxicity counter screen; conditions: for CC50: read-out: Calu-3 uninfected cytotoxicity CC50 GeoMean
HepG2 = HepG2 72 h CellTiter-Glo cytotoxicity; conditions: 72 h
SARS-CoV-2 [6] = assay: microbe, parasite or virus in culture; type: cell-based; conditions: for EC50: read-out: HeLa-ACE2 CoV-2 EC50 GeoMean
SARS-CoV-2 [7] = assay: microbe, parasite or virus in culture; type: cell-based; remark: listed apart in the source
Calu-3 cells [8] = conditions: for EC50: read-out: Calu-3 cell count EC50 GeoMean
HeLa-ACE2 cells [9] = conditions: for EC50: read-out: HeLa-ACE2 cell count EC50 GeoMean
[10] = Uninfected HeLa-ACE2 24 h live/dead cytotoxicity counter screen; type: cell-based, human; conditions: human, uninfected HeLa-ACE2 cells, unrounded geometric mean; read-out: HeLa-ACE2 uninfected cytotoxicity CC50 GeoMean
HeLa-ACE2 cells [11] = assay: cells; conditions: Homo sapiens, HeLa-ACE2, read-out: HeLa-ACE2 cell count EC50 GeoMean, unrounded geometric mean
[12] = Uninfected Calu-3 48 h Cell-Titer Glo cytotoxicity counter screen; conditions: human, uninfected Calu-3 cells, Calu-3 uninfected cytotoxicity CC50 GeoMean, unrounded geometric mean
SARS-CoV-2 [13] = type: cell-based
Calu-3 cells [14] = assay: cells; conditions: Homo sapiens
[15] = curve plateau at infinite concentration
[16] = curve-fit effect at infinite concentration, average
[17] = unrounded geometric mean, read-out: Calu-3 CoV-2 EC50 GeoMean

Q: With `CN(C)CC1=C[CH]([Fe][CH]2C=CC=C2)C=C1CNc1ccnc2cc(Cl)ccc12` (stereo not drawn) [Ferroquine] as the compound, how does the EC50 (HeLa-ACE2 cells [1]) read?
A: The EC50 was > 9.59 µM.

Q: And the “HEK293T 72-hour cytotoxicty Sinf Average” value (HEK293T)?
A: The value was -100%.

Q: What about the CC50 (HEK293T; read-out: HEK293T 72-hour cytotoxicty CC50 GeoMean) of the same compound?
A: Its CC50 is 7.24 µM.

Q: What about the “HeLa-ACE2 synergy score with remdesivi” value (SARS-CoV-2 [2]) of the same compound?
A: The value was -2.076 δ.

Q: And the “HeLa-ACE2 uninfected cytotoxicity Sinf Average” value (HeLa-ACE2 cells [3]; [15])?
A: Its value is -100%.

Q: And the CC50 (HeLa-ACE2 cells [3]; detail block)?
A: The CC50 was 13.4 µM.

Q: And the “TOA:HeLa-ACE2 EC50 Ratio” value (SARS-CoV-2 [4])?
A: The value was 7.345.

Q: And the “HeLa-ACE2 TOA CoV-2 Sinf Average” value (SARS-CoV-2 [4]; [15])?
A: Its value is -100%.

Q: What about the EC50 (SARS-CoV-2 [4]; read-out: HeLa-ACE2 TOA CoV-2 EC50 GeoMean) of the same compound?
A: The EC50 was > 9.59 µM.

Q: What about the “Calu-3 uninfected cytotoxicity Sinf Average” value (Calu-3 cells [5]; [15]) of the same compound?
A: The value was -100%.

Q: What about the CC50 (Calu-3 cells [5]; detail block) of the same compound?
A: Its CC50 is 17.5 µM.

Q: And the “HepG2 72-hour cytotoxicity Sinf Average” value (HepG2)?
A: Its value is -100%.

Q: What about the CC50 (HepG2; read-out: HepG2 72-hour cytotoxicity CC50 GeoMean) of the same compound?
A: Its CC50 is 4.72 µM.

Q: And the “HeLa-ACE2 CoV-2 Sinf Average” value (SARS-CoV-2 [6]; [15])?
A: Its value is -97%.

Q: What about the EC50 (SARS-CoV-2 [6]; detail block) of the same compound?
A: Its EC50 is 1.31 µM.

Q: What about the “HeLa-ACE2 SI” value (SARS-CoV-2 [6]; selectivity index, uninfected HeLa-ACE2 CC50 / SARS-CoV-2 EC50) of the same compound?
A: The value was 10.29.

Q: And the “Calu-3 CoV-2 Sinf Average” value (SARS-CoV-2 [7]; [15])?
A: The value was -100%.

Q: What about the EC50 (SARS-CoV-2 [7]; read-out: Calu-3 CoV-2 EC50 GeoMean) of the same compound?
A: The EC50 was > 9.98 µM.

Q: What about the EC50 (Calu-3 cells [8]; detail block) of the same compound?
A: The EC50 was > 9.98 µM.

Q: What about the “HeLa-ACE2 cell count Sinf Average” value (HeLa-ACE2 cells [9]; [15]) of the same compound?
A: The value was -53%.

Q: And the EC50 (HeLa-ACE2 cells [9]; detail block)?
A: The EC50 was > 6.8 µM.

Q: Which “HeLa-ACE2 uninfected cytotoxicity Sinf Average” value (HeLa-ACE2 cells [3]; [16]) does the source give for `CCN(CC)CCCNc1nccc2c(C)c3[nH]c4ccc(O)cc4c3c(C)c12` [SR-26050] here?
A: Its value is -98%.

Q: And the CC50 (HeLa-ACE2 cells [3]; unrounded geometric mean)?
A: Its CC50 is 0.602 µM.

Q: And the “Calu-3 uninfected cytotoxicity Sinf Average” value (Calu-3 cells [5]; [16])?
A: The value was -100%.

Q: And the CC50 (Calu-3 cells [5]; unrounded geometric mean)?
A: The CC50 was 5.84 µM.

Q: What about the “HeLa-ACE2 CoV-2 Sinf Average” value (SARS-CoV-2 [6]; [16]) of the same compound?
A: Its value is -101%.

Q: What about the EC50 (SARS-CoV-2 [6]; unrounded geometric mean) of the same compound?
A: The EC50 was 0.359 µM.

Q: And the “Calu-3 CoV-2 Sinf Average” value (SARS-CoV-2 [7])?
A: Its value is -103%.

Q: What about the EC50 (SARS-CoV-2 [7]; [17]) of the same compound?
A: The EC50 was 0.503 µM.

Q: And the EC50 (Calu-3 cells [8]; unrounded geometric mean)?
A: Its EC50 is > 9.98 µM.

Q: And the “HeLa-ACE2 cell count Sinf Average” value (HeLa-ACE2 cells [9]; [16])?
A: Its value is -103%.

Q: And the EC50 (HeLa-ACE2 cells [9]; unrounded geometric mean)?
A: The EC50 was 0.48 µM.

Q: What does the source list for `N=C(N)c1ccc2cc(OC(=O)c3ccc(N=C(N)N)cc3)ccc2c1` [Nafamostat mesylate]?
A: CC50 at 24 h [10]: > 39.8 µM; EC50 (HeLa-ACE2 cells [11]): > 9.59 µM; CC50 at 48 h [12]: > 29.9 µM; Calu-3 uninfected cytotoxicity Sinf Average (Calu-3 cells [5]; [16]): -100%; EC50 (SARS-CoV-2 [6]; Severe acute respiratory syndrome coronavirus 2, HeLa-ACE2, unrounded geometric mean): > 9.59 µM; Emax (SARS-CoV-2 [7]; Severe acute respiratory syndrome coronavirus 2, Calu-3, 48 h, curve-fit effect at infinite concentration, average, read-out: Calu-3 CoV-2 Sinf Average): 93%; EC50 (SARS-CoV-2 [7]; Severe acute respiratory syndrome coronavirus 2, Calu-3, unrounded geometric mean, read-out: Calu-3 CoV-2 EC50 GeoMean): 0.024 µM; EC50 (SARS-CoV-2 [7]; Severe acute respiratory syndrome coronavirus 2, Calu-3, geomean, read-out: SARS-CoV-2 EC50): 0.024 µM; effect on viral replication in ALI-HBECs (SARS-CoV-2 [13]): inhibited viral replication; Emax (Calu-3 cells [14]; Calu-3, 48 h, read-out: Calu-3 cell count Sinf Average): 100%; EC50 (Calu-3 cells [14]; Calu-3, read-out: Calu-3 cell count EC50 GeoMean, unrounded geometric mean): 0.04 µM; EC50 (Calu-3 cells [14]; Calu-3, read-out: cell count EC50, Calu-3, geomean, ^↑ = increasing dose-response curve): 0.04 µM

Q: Which “HeLa-ACE2 uninfected cytotoxicity Sinf Average” value (HeLa-ACE2 cells [3]; [16]) does the source give for Antimycin A3 here?
A: The value was -100%.

Q: What about the CC50 (HeLa-ACE2 cells [3]; unrounded geometric mean) of the same compound?
A: Its CC50 is > 39.8 µM.

Q: What about the “Calu-3 uninfected cytotoxicity Sinf Average” value (Calu-3 cells [5]; [16]) of the same compound?
A: The value was -79%.

Q: And the CC50 (Calu-3 cells [5]; unrounded geometric mean)?
A: The CC50 was > 3.9 µM.

Q: What about the EC50 (SARS-CoV-2 [6]; unrounded geometric mean) of the same compound?
A: The EC50 was > 9.59 µM.

Q: And the “Calu-3 CoV-2 Sinf Average” value (SARS-CoV-2 [7]; [16])?
A: Its value is -92%.

Q: What about the EC50 (SARS-CoV-2 [7]; [17]) of the same compound?
A: The EC50 was 0.0355 µM.

Q: And the “Calu-3 cell count Sinf Average” value (Calu-3 cells [8]; [16])?
A: Its value is 47%.

Q: What about the EC50 (Calu-3 cells [8]; unrounded geometric mean) of the same compound?
A: The EC50 was 0.0626 µM.

Q: What about the EC50 (HeLa-ACE2 cells [9]; unrounded geometric mean) of the same compound?
A: Its EC50 is > 9.59 µM.
